Measurements: PMC12434536, “Radiosynthesis and Preclinical Evaluation of a Carbon-11 Labeled Phosphodiesterase 7 Inhibitor for PET Neuroimaging” (ACS Medicinal Chemistry Letters, 2025)
Where two headings read alike, the source gives them in different places.

Legend:
[1] = system: other PDE isozymes (PDE1A/B/C, 2A, 3A/B, 4A/B/C/D, 5A, 8A, 9A, and 10A); assay: Selectivity over other PDE isozymes; format: biochemical; conditions: at 3 μM of compound 27; human recombinant enzymes
Experimental: protein-ligand complex were saved and were then loaded into Schrödinger Maestro to generate the ligand interaction plot.
In vitro inhibitory assay to PDE7 of compound 27 and selectivity to other PDEs Functional activity of target compound 27 for inhibition of PDE7A activity and the selectivity over other PDE isozymes (PDE1A/B/C, 2A, 3A/B, 4A/B/C/D, 5A, 8A, 9A, and 10A) were evaluated by Eurofins Panlabs Discovery Services and Reaction Biology Corp., respectively. Human recombinant enzymes were used for the assays. The inhibitory assays were performed and calculated in duplicate at 3 µM. If the inhibition percentage was less than 50%, the assay for half-maximal inhibitory concentration (IC50) value was conducted in […]
CYP450 isoform metabolism and in vitro safety profiling
The inhibitory constant of compound 26 toward cytochrome P450-dependent metabolic pathways was determined for individual CYP isoform (CYP1A2, CYP2C9, CYP2C19, CYP2D6, and CYP3A4). Reference inhibitors were included as positive controls. A 10 µM solution of compound 27 was used for initial screening. If the inhibition percentage was less than 50%, the experiment was stopped. If the inhibition potency was greater than 50%, the gradient concentrations of compound 27 were used for IC 50 determination. The P450 reactions were detected at Ext/Em: 405 nm/460 nm (530 nm/605 nm for CYP2C9) in a […]

[2] = system: CYP2C9, CYP2C19, CYP2D6, CYP3A4; assay: CYP450 isoform inhibition profiling, other isoforms; format: in vitro ADME; conditions: all isoforms except CYP1A2; read-out: IC50 against the other CYP450 isoforms
Experimental: page 5: protein-ligand complex were saved and were then loaded into Schrödinger Maestro to generate the ligand interaction plot. In vitro inhibitory assay to PDE7 of compound 27 and selectivity to other PDEs Functional activity of target compound 27 for inhibition of PDE7A activity and the selectivity over other PDE isozymes ([…], and 10A) were evaluated by Eurofins Panlabs Discovery Services and Reaction Biology Corp., respectively. Human recombinant enzymes were used for the assays. The inhibitory assays were performed and calculated in duplicate at 3 μM. If the inhibition percentage was less […] duplicate. CYP450 isoform metabolism and in vitro safety profiling The inhibitory constant of compound 26 toward cytochrome P450-dependent metabolic pathways was determined for individual CYP isoform (CYP1A2, CYP2C9, CYP2C19, CYP2D6, and CYP3A4). Reference inhibitors were included as positive controls. A 10 μM solution of compound 27 was used for initial screening. If the inhibition percentage was less than 50%, the experiment was stopped. […] gradient concentrations of compound 27 were used for IC 50 determination. The P450 reactions were detected at Ext/Em: 405 nm/460 nm (530 nm/605 nm for CYP2C9) in a S3 page 6: […] IC50 curves were plotted using a non-linear regression model with Graphpad Prism 6. […] Plasma and brain samples were quantified by LC-MS/MS method. […]

[3] = Pharmacokinetics in plasma and brain (NeuroPK study); format: in vivo, Sprague-Dawley rats
Experimental: Pharmacokinetics in Plasma and Brain (NeuroPK study)
Nine male wildtype Sprague Dawley rats were administered a bolus injection containing compound 27 in saline (1 mg/kg, 2 mL/kg) via the tail vein. Blood samples (approximately 120 µL) were harvested under light isoflurane anesthesia from a set of three rats at 0.08, 0.25, and 1 hr. Blood and brain samples were collected at 5, […] and 60 min. Following centrifugation of blood samples, the resulting plasma supernatant was stored at -70 ± 10 °C till further analysis. Brain samples were homogenized using ice-cold phosphate buffer saline (pH 7.4) and homogenates were stored below -70 ± 10 °C until further analysis. Total homogenate volume was three times the brain weight. Plasma and brain samples were quantified by LC-MS/MS method. The plasma and brain concentration-time data of compound 27 was used for pharmacokinetic analysis. […]

[4] = Plasma protein binding (free fraction); format: in vitro ADME; conditions: mouse, rat, and human plasma
Experimental: The general procedure for lipophilicity measurement was previously described, 4 with minor modification in this work. Briefly, the measurement of LogD value was carried out by mixing [11C]27 (radiochemical purity > 99%) with n-octanol (3.0 g) and PBS (0.1 M, 3.0 g) in a test tube. Both n-octanol and PBS were pre-saturated with each other prior to use. The tube was first vortexed for 5 min, followed by centrifugation (~3500-4000 rpm) for an additional 5 min. PBS and n-octanol were aliquoted, weighed and the radioactivity in each component was measured using a Cobra Model 5002/5003 gamma counter. The LogD was determined by Log [ratio of radioactivity in n-octanol and aqueous layer, respectively] (n = […]
For the evaluation of plasma protein binding,5 55.5 MBq radiotracer was added to 150 μL of plasma, which was pre-incubated under 37 °C for 5 min (n = 3). The samples were incubated at 37 °C for 10 min. To each 150 μL of radiotracer-plasma solution was added 300 μL of ice-cold PBS and all samples were briefly vortexed. […] The radioactivity (in Becquerel) was measured in the protein fraction (Aprotein), filtrate, and filter unit using a gamma counter (Wizard, PerkinElmer), Atotal was calculated as the sum of radioactivity, and the free fraction f u was calculated according to the following eq.: f u = 1-

[5] = 5 min, single iv 1 mg/kg, male Sprague-Dawley rats, n = 3, 1 mg/kg

For `COc1ccc(Cl)c2c1C1(CCCCC1)NC(=O)N2` [Compound 27], the “% inhibition of other PDE isomers” value [1] was < 50%, the IC50 at 80 min [2] was ≥ 10 µM and the brain concentration mean [3, 5] was 3316.17 ng/g. For the same compound, the plasma concentration mean [3, 5] was 712.49 ng/mL, the plasma concentration mean ([3]; 60 min, single iv 1 mg/kg, male Sprague-Dawley rats, n = 3, 1 mg/kg) was 39.39 ng/mL and the “brain-to-plasma ratios (Kp)” value ([3]; all measured time points (5-60 min), SD rats, 1 mg/kg iv, 1 mg/kg) was > 3. For the same compound, the “fraction of the compound remaining in the brain” value ([3]; last measured time point (60 min), relative to 5 min peak, rats) was “less than 5%”, the Kp at 5 min ([3]; male, Sprague-Dawley, rat, brain, iv, 1 mg/kg, 5 min, single iv 1 mg/kg, male Sprague-Dawley rats, n = 3, read-out: Kp (brain-to-plasma ratio) mean) was 4.76 and the Kp at 25 min ([3]; male, Sprague-Dawley, rat, brain, iv, 1 mg/kg, 25 min, single iv 1 mg/kg, male Sprague-Dawley rats, n = 3, read-out: Kp (brain-to-plasma ratio) mean) was 4. For the same compound, the Kp at 1 h ([3]; male, Sprague-Dawley, rat, brain, iv, 1 mg/kg, 60 min, single iv 1 mg/kg, male Sprague-Dawley rats, n = 3, read-out: Kp (brain-to-plasma ratio) mean) was 3.35, the Kp ([3]; male, Sprague-Dawley, rat, brain, iv, 1 mg/kg, all measured time points (5-60 min), SD rats, 1 mg/kg iv, read-out: brain-to-plasma ratios (Kp)) was 3 to 5 and the concentration at 5 min ([3]; rat, brain, 5 min, single iv 1 mg/kg, male Sprague-Dawley rats, n = 3, read-out: brain concentration mean) was 3320 ± 378 ng/g. For the same compound, the concentration at 25 min ([3]; rat, brain, 25 min, single iv 1 mg/kg, male Sprague-Dawley rats, n = 3, read-out: brain concentration mean) was 876 ng/g, the concentration at 60 min ([3]; rat, brain, 60 min, single iv 1 mg/kg, male Sprague-Dawley rats, n = 3, read-out: brain concentration mean) was 132 ng/g and the concentration at 5 min ([3]; rat, plasma, 5 min, single iv 1 mg/kg, male Sprague-Dawley rats, n = 3, read-out: plasma concentration mean) was 712 ± 153 ng/mL. For the same compound, the concentration at 25 min ([3]; rat, plasma, 25 min, single iv 1 mg/kg, male Sprague-Dawley rats, n = 3, read-out: plasma concentration mean) was 229 ng/mL, the concentration at 60 min ([3]; rat, plasma, 60 min, single iv 1 mg/kg, male Sprague-Dawley rats, n = 3, read-out: plasma concentration mean) was 39.4 ± 4.44 ng/mL and the fraction unbound at 10 min [4] was ≥ 0.01.
